Reference: patent US20220081412A1, “QUINOLINYL-PYRAZINE-CARBOXAMIDE COMPOUNDS AND USES THEREOF” (The Regents of the University of Michigan, priority 2018, published 2022)

Test system: NCI60 cell lines
Experiment: NCI60 cell line panel
Type: cell-based, human
Procedure: The Developmental Therapeutics Program (DTP) of NCI has evaluated more than 100,000 pure compounds and more than 34,000 crude extracts against the panel of human tumor cell lines. The resultant data are analyzed using a program called COMPARE, that rank the entire database of tested compounds in the order of the similarity of the responses. […] Thus, the NCI60 databases is highly useful to the cancer research community. Further experiments were conducted that tested some of the active compounds in a panel of NCI60 cell line to relate our compounds with some known inhibitors to have an idea of possible mechanism of action.
In order to understand the selectivity of these compounds in different cancer types, some of them were tested against a panel of 60 cell lines (Table XXXIX).

## CCN(CC)CCCC(C)Nc1cnc(C(=O)Nc2cc(C)cc3cccnc23)cn1 (centres unmarked) [J4, 5-((5-(diethylamino)pentan-2-yl)amino)-N-(6-methylquinolin-8-yl)pyrazine-2-carboxamide]
Breast Cancer, BT-549
  GIPRCNT: % Growth inhibition: 93.26%
Breast Cancer, HS 578T
  GIPRCNT: % Growth inhibition: 79.89%
Breast Cancer, MCF7
  GIPRCNT: % Growth inhibition: 57.27%
Breast Cancer, MDA-MB-231/ATCC
  GIPRCNT: % Growth inhibition: 89.17%
Breast Cancer, MDA-MB-468
  GIPRCNT: % Growth inhibition: 9.358%
Breast Cancer, T-47D
  GIPRCNT: % Growth inhibition: 32.641%
CNS Cancer, SF-268
  GIPRCNT: % Growth inhibition: 66.12%
CNS Cancer, SF-295
  GIPRCNT: % Growth inhibition: 98.94%
CNS Cancer, SF-539
  GIPRCNT: % Growth inhibition: 86.87%
CNS Cancer, SNB-19
  GIPRCNT: % Growth inhibition: 89.24%
CNS Cancer, SNB-75
  GIPRCNT: % Growth inhibition: 78.26%
CNS Cancer, U251
  GIPRCNT: % Growth inhibition: 78.39%
Colon Cancer, COLO 205
  GIPRCNT: % Growth inhibition: 37.0068%
Colon Cancer, HCC-2998
  GIPRCNT: % Growth inhibition: 89.8%
Colon Cancer, HCT-15
  GIPRCNT: % Growth inhibition: 59.89%
Colon Cancer, HCT-116
  GIPRCNT: % Growth inhibition: 18.05%
Colon Cancer, HT29
  GIPRCNT: % Growth inhibition: 37.31%
Colon Cancer, KM12
  GIPRCNT: % Growth inhibition: 97.9%
Colon Cancer, SW-620
  GIPRCNT: % Growth inhibition: 75.26%
Leukemia, CCRF-CEM
  GIPRCNT: % Growth inhibition: 54.24%
Leukemia, HL-60(TB)
  GIPRCNT: % Growth inhibition: 76.8%
Leukemia, K-562
  GIPRCNT: % Growth inhibition: 25.88%
Leukemia, MOLT-4
  GIPRCNT: % Growth inhibition: 46.46%
Leukemia, RPMI-8226
  GIPRCNT: % Growth inhibition: 77.97%
Leukemia, SR
  GIPRCNT: % Growth inhibition: 81.88%
Melanoma, LOX IMVI
  GIPRCNT: % Growth inhibition: 87%
Melanoma, M14
  GIPRCNT: % Growth inhibition: 98.61%
Melanoma, MALME-3M
  GIPRCNT: % Growth inhibition: 107.0521%
Melanoma, MDA-MB-435
  GIPRCNT: % Growth inhibition: 83.68%
Melanoma, SK-MEL-2
  GIPRCNT: % Growth inhibition: 104.3875%
Melanoma, SK-MEL-5
  GIPRCNT: % Growth inhibition: 83.12%
Melanoma, UACC-62
  GIPRCNT: % Growth inhibition: 98.62%
Melanoma, UACC-257
  GIPRCNT: % Growth inhibition: 71.75%
Non-Small Cell Lung Cancer, A549/ATCC
  GIPRCNT: % Growth inhibition: 72.8%
Non-Small Cell Lung Cancer, EKVX
  GIPRCNT: % Growth inhibition: 77.77%
Non-Small Cell Lung Cancer, HOP-62
  GIPRCNT: % Growth inhibition: 91.15%
Non-Small Cell Lung Cancer, HOP-92
  GIPRCNT: % Growth inhibition: 51.4%
Non-Small Cell Lung Cancer, NCI-H23
  GIPRCNT: % Growth inhibition: 96.3%
Non-Small Cell Lung Cancer, NCI-H226
  GIPRCNT: % Growth inhibition: 60.39%
Non-Small Cell Lung Cancer, NCI-H322M
  GIPRCNT: % Growth inhibition: 84.18%
Non-Small Cell Lung Cancer, NCI-H460
  GIPRCNT: % Growth inhibition: 79.5%
Non-Small Cell Lung Cancer, NCI-H522
  GIPRCNT: % Growth inhibition: 96.8365%
Ovarian Cancer, IGROV1
  GIPRCNT: % Growth inhibition: 68.68%
Ovarian Cancer, NCI/ADR-RES
  GIPRCNT: % Growth inhibition: 92.67%
Ovarian Cancer, OVCAR-3
  GIPRCNT: % Growth inhibition: 20.46%
Ovarian Cancer, OVCAR-4
  GIPRCNT: % Growth inhibition: 58.85%
Ovarian Cancer, OVCAR-5
  GIPRCNT: % Growth inhibition: 97.58%
Ovarian Cancer, OVCAR-8
  GIPRCNT: % Growth inhibition: 86.9118%
Ovarian Cancer, SK-OV-3
  GIPRCNT: % Growth inhibition: 103.7568%
Prostate Cancer, DU-145
  GIPRCNT: % Growth inhibition: 80.68%
Prostate Cancer, PC-3
  GIPRCNT: % Growth inhibition: 83.08%
Renal Cancer, 786-0
  GIPRCNT: % Growth inhibition: 88.22%
Renal Cancer, A498
  GIPRCNT: % Growth inhibition: 70.33%
Renal Cancer, ACHN
  GIPRCNT: % Growth inhibition: 77.87%
Renal Cancer, CAKI-1
  GIPRCNT: % Growth inhibition: 93.45%
Renal Cancer, RXF 393
  GIPRCNT: % Growth inhibition: 72.29%
Renal Cancer, SN12C
  GIPRCNT: % Growth inhibition: 77.92%
Renal Cancer, TK-10
  GIPRCNT: % Growth inhibition: 86.86%
Renal Cancer, UO-31
  GIPRCNT: % Growth inhibition: 63.33%
